Laboratory results as given in ChEMBL document CHEMBL1201862, “PubChem BioAssay data set” (2004).
Activity calls are given as the source filed them.

Key:
Escherichia coli = assay: microbe, parasite or virus in culture
[1] = target: T1, Sentrin-specific protease 1 (Homo sapiens, UniProt Q9P0U3); assay: Dose response confirmation of small molecule inhibitors of the catalytic domain of the SUMO protease, SENP1 in a FRET assay.; type: functional; conditions: read-out: IC50_Mean
T1 sequence (Q9P0U3 whole entry): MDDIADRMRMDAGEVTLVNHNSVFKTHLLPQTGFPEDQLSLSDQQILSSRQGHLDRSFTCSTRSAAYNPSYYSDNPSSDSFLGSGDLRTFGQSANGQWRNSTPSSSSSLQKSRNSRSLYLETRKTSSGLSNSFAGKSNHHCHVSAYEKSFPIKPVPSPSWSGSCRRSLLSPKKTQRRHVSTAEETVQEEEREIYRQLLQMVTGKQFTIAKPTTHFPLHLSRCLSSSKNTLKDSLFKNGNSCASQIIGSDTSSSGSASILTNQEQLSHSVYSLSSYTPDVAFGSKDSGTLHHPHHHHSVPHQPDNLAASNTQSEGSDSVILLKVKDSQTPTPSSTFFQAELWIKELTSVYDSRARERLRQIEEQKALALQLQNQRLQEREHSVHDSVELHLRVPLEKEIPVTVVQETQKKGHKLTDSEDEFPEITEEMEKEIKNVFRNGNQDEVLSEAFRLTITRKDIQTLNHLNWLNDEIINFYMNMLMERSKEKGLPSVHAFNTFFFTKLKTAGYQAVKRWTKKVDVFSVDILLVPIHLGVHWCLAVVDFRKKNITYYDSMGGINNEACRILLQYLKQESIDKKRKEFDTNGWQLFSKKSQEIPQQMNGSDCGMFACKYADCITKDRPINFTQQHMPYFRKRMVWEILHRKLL

[2] = target: T1, Sentrin-specific protease 1; assay: potency of human SENP1 inhibitors, dose response, biochemical, kinetic FRET (AID 651697); type: functional; conditions: read-out: IC50_Mean
Paired box protein Pax-8 = Paired box protein Pax-8 (Homo sapiens, UniProt Q06710); assay: inhibitors of PAX8-driven TPO luciferase reporter, dose response, RMG-I cells, cherry-pick (AID 687027); type: functional, cell-based;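 also: luciferase reporter driven by Pax8 target thyroperoxidase promoter measured by SteadyGlo luminescence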
[3] = cytotoxicity toward NIH3T3 fibroblasts, dose response, counter-screen, cell-based, ATP luminescence, mouse fibroblasts (AID 2010); type: functional;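 also: cells exposed to compound for about 90 hours before reading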
[4] = Fluorescence-based cell-based high throughput dose response assay for inhibitors of the interaction of nucleotide-binding oligomerization domain containing 2 (NOD2) and the receptor-interacting serine-threonine kinase 2 (RIPK2).; type: functional; conditions: Homo sapiens
[5] = inhibitors of intracellular T. cruzi replication, confirmation, NIH3T3 host cells, beta-gal luminescence (AID 2044); type: functional, cell-based;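 also: intracellular parasites grown in NIH/3T3 mouse fibroblasts as host cells; luminescent beta-galactosidase reporter signal from transgenic T. cruzi replicating inside host cells; inhibitors lower the luminescence signal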
Beta Lactamase = Beta Lactamase (Pseudomonas aeruginosa, UniProt Q932Y6); assay: beta-lactamase reporter inhibitor potency, dose response, artefact control for NOD2-RIPK2 interaction inhibitor project, BLA reporter cells, FRET fluorescence (AID 651552); type: functional, cell-based
[6] = target: T2, Latent membrane protein 1 (Human herpesvirus 4 (strain B95-8), UniProt P03230); assay: TES1-eGFP NF-kB reporter inhibition versus Tet-On dsRED, dose response, selectivity assay for LMP1 NF-kB inhibitor project, imaging, HEK293T, dual-color eGFP/dsRED, cherry-picks (AID 588398); type: functional, cell-based
T2 sequence (P03230 whole entry): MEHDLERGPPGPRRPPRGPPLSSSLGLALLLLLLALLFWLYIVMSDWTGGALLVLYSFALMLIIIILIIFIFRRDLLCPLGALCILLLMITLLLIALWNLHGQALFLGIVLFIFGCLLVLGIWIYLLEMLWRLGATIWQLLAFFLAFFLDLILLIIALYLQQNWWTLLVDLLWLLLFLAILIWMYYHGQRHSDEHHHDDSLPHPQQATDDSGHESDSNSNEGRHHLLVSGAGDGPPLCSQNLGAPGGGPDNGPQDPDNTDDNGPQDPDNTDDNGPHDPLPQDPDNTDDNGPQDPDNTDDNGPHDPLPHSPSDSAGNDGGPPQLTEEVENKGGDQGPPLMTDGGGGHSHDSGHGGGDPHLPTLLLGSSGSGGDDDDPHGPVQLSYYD

HEK293 = assay: inhibitors of LMP1-driven NF-kB reporter, dose response, cell-based, HEK293, luciferase, cherry-pick (AID 588343); type: functional; conditions: Homo sapiens
Nonstructural protein 1 = Nonstructural protein 1 (Influenza A virus, UniProt Q194T2); type: functional, Influenza A virus (A/California/07/2009(H1N1))
[7] = target: Heat shock protein HSP 90-alpha (Homo sapiens, UniProt P07900); type: functional, organism-based
HeLa = assay: HeLa cell cytotoxicity, dose response, cytotoxicity control for MITF activator project, CellTiter-Glo luminescence, cherry-pick samples (AID 540259); type: functional, cell-based; conditions: Homo sapiens
[8] = target: 26S proteasome non-ATPase regulatory subunit 14 (Homo sapiens, UniProt O00487); assay: inhibition of proteasome subunit RPN11 – biochemical, fluorescence polarization, uHTS hits, confirmation (AID 602368); type: functional
[9] = target: 72 kDa type IV collagenase (Homo sapiens, UniProt P08253); assay: Dose Response validation of uHTS RPN11 inhibitor hits using a MMP-2 Fluorescence assay.; type: functional
Prothrombin = Prothrombin (Bos taurus, UniProt P00735); assay: thrombin inhibition, dose response, biochemical, fluorescence polarization, uHTS hits (AID 602369); type: functional
[10] = target: Photoreceptor-specific nuclear receptor (Homo sapiens, UniProt Q9Y5X4); type: functional, cell-based;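 also: CHO-S cells with Gal4-NCOR and VP16-NR2E3 two-hybrid luciferase reporter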
Fatty acid synthase [11] = target: T3, Fatty acid synthase (Homo sapiens, UniProt P49327); assay: FAS thioesterase domain inhibitors, dose response, biochemical, kinetic fluorescence intensity (AID 624326); type: functional;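 also: rate of fluorescence rise from hydrolysis of a fluorogenic O-methyl fluorescein ester substrate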
Fatty acid synthase [12] = target: T3, Fatty acid synthase; assay: FAS thioesterase domain inhibitors, dose response, biochemical, endpoint fluorescence intensity, uHTS hits (AID 624327); type: functional;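 also: fluorescence from hydrolysis of an O-methyl fluorescein acyl ester substrate by the enzyme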

Chain of Beta Lactamase (Q932Y6 whole entry): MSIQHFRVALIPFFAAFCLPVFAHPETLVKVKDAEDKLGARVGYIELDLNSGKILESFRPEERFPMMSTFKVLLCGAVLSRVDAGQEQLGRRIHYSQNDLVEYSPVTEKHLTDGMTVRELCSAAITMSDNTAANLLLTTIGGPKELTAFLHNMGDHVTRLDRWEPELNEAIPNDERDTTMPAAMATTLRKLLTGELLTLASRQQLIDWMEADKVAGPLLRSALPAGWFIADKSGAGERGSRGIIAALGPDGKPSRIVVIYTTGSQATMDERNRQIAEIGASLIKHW
T3 sequence (P49327 whole entry, the tested form may be a part): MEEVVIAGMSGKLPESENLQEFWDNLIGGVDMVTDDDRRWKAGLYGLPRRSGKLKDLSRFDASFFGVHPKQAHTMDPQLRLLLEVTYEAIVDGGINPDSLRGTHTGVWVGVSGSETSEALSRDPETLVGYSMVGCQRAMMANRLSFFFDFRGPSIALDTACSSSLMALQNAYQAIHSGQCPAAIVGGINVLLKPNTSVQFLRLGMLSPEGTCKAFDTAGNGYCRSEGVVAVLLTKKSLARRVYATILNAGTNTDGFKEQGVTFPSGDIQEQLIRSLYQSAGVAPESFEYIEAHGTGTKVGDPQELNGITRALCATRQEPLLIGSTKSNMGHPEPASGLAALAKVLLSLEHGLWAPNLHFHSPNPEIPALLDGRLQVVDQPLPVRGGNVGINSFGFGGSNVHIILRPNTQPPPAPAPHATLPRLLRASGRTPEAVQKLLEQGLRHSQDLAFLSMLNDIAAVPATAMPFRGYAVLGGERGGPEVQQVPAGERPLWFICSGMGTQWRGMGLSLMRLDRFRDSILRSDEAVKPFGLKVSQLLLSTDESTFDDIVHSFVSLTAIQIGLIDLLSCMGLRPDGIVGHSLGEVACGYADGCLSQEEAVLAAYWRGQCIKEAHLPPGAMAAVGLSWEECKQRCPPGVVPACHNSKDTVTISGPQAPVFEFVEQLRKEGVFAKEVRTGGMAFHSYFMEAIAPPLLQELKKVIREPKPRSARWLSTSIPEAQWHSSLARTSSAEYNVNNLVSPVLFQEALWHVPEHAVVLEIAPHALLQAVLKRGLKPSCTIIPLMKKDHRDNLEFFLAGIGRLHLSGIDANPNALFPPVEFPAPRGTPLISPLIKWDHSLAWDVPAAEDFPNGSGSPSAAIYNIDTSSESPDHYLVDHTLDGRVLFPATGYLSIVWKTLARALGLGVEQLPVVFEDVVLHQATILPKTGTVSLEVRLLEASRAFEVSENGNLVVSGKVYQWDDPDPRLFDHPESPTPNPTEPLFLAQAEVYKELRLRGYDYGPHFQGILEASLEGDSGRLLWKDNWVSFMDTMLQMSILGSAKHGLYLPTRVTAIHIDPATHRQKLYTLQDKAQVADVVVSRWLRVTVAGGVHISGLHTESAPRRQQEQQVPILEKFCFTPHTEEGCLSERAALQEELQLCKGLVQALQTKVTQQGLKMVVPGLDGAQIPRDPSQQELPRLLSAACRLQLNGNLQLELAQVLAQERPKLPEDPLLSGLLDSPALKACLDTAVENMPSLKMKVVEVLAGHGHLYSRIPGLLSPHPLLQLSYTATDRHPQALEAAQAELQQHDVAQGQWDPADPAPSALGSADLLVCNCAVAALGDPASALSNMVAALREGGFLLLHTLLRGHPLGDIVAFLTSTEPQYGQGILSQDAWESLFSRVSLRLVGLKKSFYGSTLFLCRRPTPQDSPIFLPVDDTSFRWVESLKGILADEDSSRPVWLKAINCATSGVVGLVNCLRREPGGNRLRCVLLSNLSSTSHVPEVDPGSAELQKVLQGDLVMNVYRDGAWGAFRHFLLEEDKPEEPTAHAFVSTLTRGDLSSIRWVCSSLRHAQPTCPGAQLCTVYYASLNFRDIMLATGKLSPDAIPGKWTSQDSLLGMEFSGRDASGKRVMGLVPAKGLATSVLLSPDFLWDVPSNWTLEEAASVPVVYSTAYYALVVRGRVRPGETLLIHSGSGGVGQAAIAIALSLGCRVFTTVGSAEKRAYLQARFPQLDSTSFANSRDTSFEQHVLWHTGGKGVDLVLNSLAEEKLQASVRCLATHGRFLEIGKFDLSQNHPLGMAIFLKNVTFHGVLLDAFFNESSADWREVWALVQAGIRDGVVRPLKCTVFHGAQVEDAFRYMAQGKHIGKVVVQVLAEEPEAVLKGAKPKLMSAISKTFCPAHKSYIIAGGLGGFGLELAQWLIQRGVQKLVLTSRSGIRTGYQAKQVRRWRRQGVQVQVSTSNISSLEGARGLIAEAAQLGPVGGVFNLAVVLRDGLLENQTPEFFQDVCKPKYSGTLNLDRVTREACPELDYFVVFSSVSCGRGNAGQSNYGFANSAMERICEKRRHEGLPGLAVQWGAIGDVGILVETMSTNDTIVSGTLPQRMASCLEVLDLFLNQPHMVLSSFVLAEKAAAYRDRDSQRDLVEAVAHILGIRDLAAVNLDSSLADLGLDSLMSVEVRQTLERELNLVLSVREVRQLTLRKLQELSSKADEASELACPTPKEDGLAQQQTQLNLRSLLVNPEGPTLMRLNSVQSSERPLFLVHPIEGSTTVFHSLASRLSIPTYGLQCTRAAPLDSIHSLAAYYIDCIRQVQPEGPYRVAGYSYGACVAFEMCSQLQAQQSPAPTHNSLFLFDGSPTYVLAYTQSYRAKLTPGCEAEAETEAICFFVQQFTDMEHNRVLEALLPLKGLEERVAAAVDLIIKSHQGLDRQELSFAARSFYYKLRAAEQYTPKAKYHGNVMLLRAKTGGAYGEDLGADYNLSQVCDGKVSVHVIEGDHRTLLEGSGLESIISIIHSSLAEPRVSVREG
Chain of 72 kDa type IV collagenase (P08253 whole entry): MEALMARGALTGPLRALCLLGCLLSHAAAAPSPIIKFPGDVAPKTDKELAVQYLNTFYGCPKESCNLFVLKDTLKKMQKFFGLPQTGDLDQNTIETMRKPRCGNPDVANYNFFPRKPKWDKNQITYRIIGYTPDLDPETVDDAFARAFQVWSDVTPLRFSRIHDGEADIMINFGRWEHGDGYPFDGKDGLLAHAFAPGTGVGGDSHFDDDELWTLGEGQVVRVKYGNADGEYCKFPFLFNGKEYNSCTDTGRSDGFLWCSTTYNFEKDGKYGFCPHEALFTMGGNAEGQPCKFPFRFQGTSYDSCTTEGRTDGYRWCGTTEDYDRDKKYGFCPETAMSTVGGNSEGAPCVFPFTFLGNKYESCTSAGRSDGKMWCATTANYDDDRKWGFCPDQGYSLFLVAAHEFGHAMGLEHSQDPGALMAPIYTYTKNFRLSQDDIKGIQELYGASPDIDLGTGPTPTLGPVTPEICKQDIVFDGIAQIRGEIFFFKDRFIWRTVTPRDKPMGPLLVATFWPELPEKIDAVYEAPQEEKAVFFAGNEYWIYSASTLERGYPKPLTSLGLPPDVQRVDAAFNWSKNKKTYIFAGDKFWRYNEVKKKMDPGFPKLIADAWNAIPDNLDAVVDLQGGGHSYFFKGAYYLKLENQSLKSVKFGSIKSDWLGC
Chain of 26S proteasome non-ATPase regulatory subunit 14 (O00487 whole entry): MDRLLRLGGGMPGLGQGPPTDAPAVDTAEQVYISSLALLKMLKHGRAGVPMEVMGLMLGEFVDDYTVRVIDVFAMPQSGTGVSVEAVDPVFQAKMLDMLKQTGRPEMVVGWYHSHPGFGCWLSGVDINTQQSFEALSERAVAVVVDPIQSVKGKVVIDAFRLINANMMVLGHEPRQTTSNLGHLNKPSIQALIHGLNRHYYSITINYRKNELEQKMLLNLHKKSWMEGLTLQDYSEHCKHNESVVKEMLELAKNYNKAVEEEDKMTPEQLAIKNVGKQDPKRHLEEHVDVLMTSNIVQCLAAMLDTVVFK
Chain of Nonstructural protein 1 (Q194T2 whole entry): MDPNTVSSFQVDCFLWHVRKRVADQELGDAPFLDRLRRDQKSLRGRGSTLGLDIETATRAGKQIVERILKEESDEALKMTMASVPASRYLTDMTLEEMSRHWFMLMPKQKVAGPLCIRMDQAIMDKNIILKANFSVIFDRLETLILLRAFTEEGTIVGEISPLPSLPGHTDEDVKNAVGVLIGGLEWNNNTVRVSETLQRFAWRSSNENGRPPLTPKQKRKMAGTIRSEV
Chain of Photoreceptor-specific nuclear receptor (Q9Y5X4 whole entry, the tested form may be a part): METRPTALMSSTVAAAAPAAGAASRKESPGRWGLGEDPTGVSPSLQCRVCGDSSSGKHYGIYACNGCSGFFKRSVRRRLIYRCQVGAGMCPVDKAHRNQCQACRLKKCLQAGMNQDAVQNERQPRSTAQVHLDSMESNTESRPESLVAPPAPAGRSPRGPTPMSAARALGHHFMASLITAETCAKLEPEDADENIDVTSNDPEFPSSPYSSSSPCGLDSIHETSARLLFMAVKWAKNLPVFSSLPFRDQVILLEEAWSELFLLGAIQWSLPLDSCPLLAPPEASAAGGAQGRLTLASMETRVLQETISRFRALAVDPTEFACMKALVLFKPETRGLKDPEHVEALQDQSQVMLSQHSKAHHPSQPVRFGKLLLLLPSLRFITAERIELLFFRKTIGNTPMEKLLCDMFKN
Chain of Paired box protein Pax-8 (Q06710 whole entry): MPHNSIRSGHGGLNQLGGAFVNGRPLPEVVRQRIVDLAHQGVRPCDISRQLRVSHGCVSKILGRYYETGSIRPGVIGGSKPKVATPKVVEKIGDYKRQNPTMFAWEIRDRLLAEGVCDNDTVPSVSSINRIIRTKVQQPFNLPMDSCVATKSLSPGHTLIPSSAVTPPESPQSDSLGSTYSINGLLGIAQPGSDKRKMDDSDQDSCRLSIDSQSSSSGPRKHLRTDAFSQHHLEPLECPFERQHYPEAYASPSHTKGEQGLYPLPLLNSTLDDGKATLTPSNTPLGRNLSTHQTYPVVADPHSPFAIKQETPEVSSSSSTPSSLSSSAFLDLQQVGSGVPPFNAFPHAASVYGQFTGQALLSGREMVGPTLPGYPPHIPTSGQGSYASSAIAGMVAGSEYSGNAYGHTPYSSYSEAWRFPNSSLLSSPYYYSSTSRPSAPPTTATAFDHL

O=C(COc1ccc2c3c(c(=O)oc2c1)CCCC3)NCc1ccncc1
AC50 (Escherichia coli): 38.2 µM (active)

COc1ccc(N2C(=O)C3C(C2=O)C(C(=O)c2ccccc2)N2CCCC32)cc1 (configuration not stated)
IC50 [1]: 11 µM (active) | IC50 [2]: 31 µM (inactive)

COc1ccc(OC)c2sc(N(CCCN(C)C)C(=O)CCS(=O)(=O)c3ccccc3)nc12
AC50 (Paired box protein Pax-8): 4.77 µM (active) | EC50 [3]: 6.44 µM (active) | IC50 [4]: 2.06 µM (active) | EC50 [5]: 4.32 µM (active) | IC50 (Beta Lactamase): 32.1 µM (inactive)

Cc1ccc(OCCn2cc(C(=S)N3CCCC3)c3ccccc32)cc1C
AC50 [6]: 72.9 µM (active)

CC(=NNC(=S)N1CCCCCC1)c1ccccn1
AC50 (HEK293): 0.545 µM (active) | IC50 (Nonstructural protein 1): 3 µM (active) | AC50 [6]: 4.98 µM (active) | AC50 [7]: 3.49 µM (active)

c1ccc2c(-c3csc(-c4ccncc4)n3)c[nH]c2c1
AC50 (HeLa): 40.5 µM (active)

Cc1nnc(SCc2nc3scc(-c4ccccc4)c3c(=O)[nH]2)s1
IC50 [8]: 98.6 µM (active) | IC50 [9]: > 100 µM (inactive) | IC50 (Prothrombin): 85.3 µM (active)

Nc1nc(N)nc(-c2cc(O)ccc2O)n1
IC50 [10]: 5.7 µM (active)

CCOC(=O)[C@]12Cc3cc(Cl)ccc3[C@H]1N(C1CCCCC1)C(=O)c1cc(OC)ccc12
IC50 (Fatty acid synthase [11]): 3.04 µM (active) | IC50 [4]: 11.7 µM (inactive) | IC50 (Fatty acid synthase [12]): 2.71 µM (active) | IC50 (Beta Lactamase): 16.8 µM (inactive)
